# From US20080221086A1, “Novel Inhibitors of Glutaminyl Cyclase” (PROBIODRUG AG, priority 2006, published 2008)
# Target: hQC (Homo sapiens, UniProt Q16769)
# Test: Fluorometric assay of glutaminyl cyclase (QC) inhibition, H-Gln-βNA or H-Gln-AMC substrate
# Assay type: biochemical
# Conditions: compound from preparative synthesis, purified by chromatography; fluorescent assay; read-out: IC50 hQC
# Protocol: All compounds were immediately tested regarding their activity as hQC inhibitors.
# The purity of the compounds was determined by HPLC-MS. The IC50 value against hQC was measured using the fluorescent assay.
# All measurements were performed with a BioAssay Reader HTS-7000Plus for microplates (Perkin Elmer) at 30° C. QC activity was evaluated fluorometrically using H-Gln-βNA. The samples consisted of 0.2 mM fluorogenic substrate, 0.25 U pyroglutamyl aminopeptidase (Unizyme, Hørsholm, Denmark) in 0.2 M Tris/HCl, pH 8.0 containing 20 mM EDTA and an appropriately diluted aliquot of QC in a final volume of 250 μl. Excitation/emission wavelengths were 320/410 nm. The assay reactions were initiated by addition of glutaminyl cyclase. QC activity was determined from a standard curve of β-naphthylamine under assay conditions. One unit is defined as the amount of QC catalyzing the formation of 1 μmol pGlu-βNA from H-Gln-βNA per minute under the described conditions.
# In a second fluorometric assay, QC was activity was determined using H-Gln-AMC as substrate. Reactions were carried out at 30° C. utilizing the NOVOStar reader for microplates (BMG labtechnologies). The samples consisted of varying concentrations of the fluorogenic substrate, 0.1 U pyroglutamyl aminopeptidase (Qiagen) in 0.05 M Tris/HCl, pH 8.0 containing 5 mM EDTA and an appropriately diluted aliquot of QC in a final volume of 250 μl. Excitation/emission wavelengths were 380/460 nm. The assay reactions were initiated by addition of glutaminyl cyclase. QC activity was determined from a standard curve of 7-amino-4-methylcoumarin under assay conditions. The kinetic data were evaluated using GraFit software.
# For inhibitor testing, the sample composition was the same as described above, except of the putative inhibitory compound added. For a rapid test of QC-inhibition, samples contained 4 mM of the respective inhibitor and a substrate concentration at 1 KM. For detailed investigations of the inhibition and determination of Ki-values, influence of the inhibitor on the auxiliary enzymes was investigated first. In every case, there was no influence on either enzyme detected, thus enabling the reliable determination of the QC inhibition. The inhibitory constant was evaluated by fitting the set of progress curves to the general equation for competitive inhibition using GraFit software.
# Sequence of hQC (Q16769 29-361): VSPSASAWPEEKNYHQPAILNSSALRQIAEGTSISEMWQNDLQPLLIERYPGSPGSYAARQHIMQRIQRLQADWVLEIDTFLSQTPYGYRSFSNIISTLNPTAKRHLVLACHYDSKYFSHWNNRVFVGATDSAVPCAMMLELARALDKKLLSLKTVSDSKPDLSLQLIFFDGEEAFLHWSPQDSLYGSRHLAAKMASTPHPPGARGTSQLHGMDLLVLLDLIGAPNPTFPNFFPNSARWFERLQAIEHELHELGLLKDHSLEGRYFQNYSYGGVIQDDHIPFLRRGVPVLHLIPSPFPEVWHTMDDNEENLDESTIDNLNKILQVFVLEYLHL
row,IC50,SMILES
1,0.858 µM,"O=C1N/C(=N\CCc2cccs2)C(c2ccccc2Cl)N1CCCn1ccnc1 (stereo not drawn) [Compound 43, 5-(2-Chloro-phenyl)-1-(3-imidazol-1-yl-propyl)-4-(2-thiophen-2-yl-ethylimino)-imidazolidin-2-one]"
2,0.626 µM,"O=C1N/C(=N\CCc2c[nH]c3ccccc23)C(c2cccc(F)c2F)N1CCCn1ccnc1 (stereo not drawn) [Compound 52, 5-(2,3-Difluoro-phenyl)-1-(3-imidazol-1-yl-propyl)-4-(2-(1H-indol-3-yl)-ethylimino)-imidazolidin-2-one]"
3,0.482 µM,"O=C1N/C(=N/CCc2c[nH]c3ccccc23)C(c2ccccc2Cl)N1CCCn1ccnc1 (stereo not drawn) [Compound 55, 5-(2-Chloro-phenyl)-1-(3-imidazol-1-yl-propyl)-4-2-(1H-indol-3-yl)-ethylimino-imidazolidin-2-one]"
4,0.452 µM,"O=C1N/C(=N/CCc2c[nH]c3ccccc23)C(c2ccccc2F)N1CCCn1ccnc1 (stereo not drawn) [Compound 61, 5-(2-Fluoro-phenyl)-1-(3-imidazol-1-yl-propyl)-4-(2-(1H-indol-3-yl)-ethylimino)-imidazolidin-2-one]"

# Same assay, conditions: read-out: IC50
row,IC50,SMILES
1,4 µM,"O=C1N/C(=N\c2ccc3c(c2)OCCO3)C(c2ccccc2Cl)N1CCCn1ccnc1 (stereo not drawn) [Compound 34, 5-(2-Chloro-phenyl)-4-2,3-dihydro-benzo1,4dioxin-6-ylimino-1-(3-imidazol-1-yl-propyl)-imidazolidin-2-one]"
2,5.8 µM,"CCCCC1/C(=N\c2ccc3c(c2)OCCO3)NC(=O)N1CCCn1ccnc1 (stereo not drawn) [Compound 35, 5-Butyl-4-2,3-dihydro-benzo1,4dioxin-6-ylimino-1-(3-imidazol-1-yl-propyl)-imidazolidin-2-one]"
3,6.7 µM,"CCCC/N=C1\NC(=O)N(CCCn2ccnc2)C1c1cccc(F)c1F (stereo not drawn) [Compound 36, 4-Butylimino-5-(2,3-difluoro-phenyl)-1-(3-imidazol-1-ylpropyl)-imidazolidin-2-one]"
4,5.8 µM,"CCCC/N=C1/NC(=O)N(CCCn2ccnc2)C1c1cc(F)cc(F)c1 (stereo not drawn) [Compound 37, 4-Butylimino-5-(3,5-difluoro-phenyl)-1-(3-imidazol-1-ylpropyl)-imidazolidin-2-one]"
5,7.6 µM,"O=C1N/C(=N/CCc2cccs2)C(c2ccccc2)N1CCCn1ccnc1 (stereo not drawn) [Compound 38, 1-(3-Imidazol-1-yl-propyl)-5-phenyl-4-2-thiophen-2-yl-ethylimino-imidazolidin-2-one]"
6,7.6 µM,"O=C1N/C(=N/CCc2cccs2)C(C2CCC=CO2)N1CCCn1ccnc1 (stereo not drawn) [Compound 39, 5-(3,4-Dihydro-2H-pyran-2-yl)-1-(3-imidazol-1-yl-propyl)-4-2-thiophen-2-yl-ethylimino-imidazolidin-2-one]"
7,4.9 µM,"O=C1N/C(=N\CCc2cccs2)C(c2cccc(F)c2F)N1CCCn1ccnc1 (stereo not drawn) [Compound 40, 5-(2,3-Difluoro-phenyl)-1-(3-imidazol-1-yl-propyl)-4-2-thiophen-2-yl-ethylimino-imidazolidin-2-one]"
8,3.1 µM,"O=C1N/C(=N/CCc2cccs2)C(c2cc(F)cc(F)c2)N1CCCn1ccnc1 (stereo not drawn) [Compound 41, 5-(3,5-Difluoro-phenyl)-1-(3-imidazol-1-yl-propyl)-4-2-thiophen-2-yl-ethylimino-imidazolidin-2-one]"
9,5.8 µM,"O=C1N/C(=N/CCc2cccs2)C(c2ccc(Cl)c(F)c2)N1CCCn1ccnc1 (stereo not drawn) [Compound 42, 5-(4-Chloro-3-fluoro-phenyl)-1-(3-imidazol-1-yl-propyl)-4-2-thiophen-2-yl-ethylimino-imidazolidin-2-one]"
10,0.04 µM,"O=C1N/C(=N\CCc2cccs2)C(c2ccccc2Cl)N1CCCn1ccnc1 (stereo not drawn) [Compound 43, 5-(2-Chloro-phenyl)-1-(3-imidazol-1-yl-propyl)-4-(2-thiophen-2-yl-ethylimino)-imidazolidin-2-one]"
11,5.8 µM,"O=C1N/C(=N\CCc2cccs2)C(c2ccccc2F)N1CCCn1ccnc1 (stereo not drawn) [Compound 44, 5-(2-Fluoro-phenyl)-1-(3-imidazol-1-yl-propyl)-4-(2-thiophen-2-yl-ethylimino)-imidazolidin-2-one]"
12,4.9 µM,"O=C1N/C(=N/CCc2cccs2)C(c2ccc(O)cc2)N1CCCn1ccnc1 (stereo not drawn) [Compound 45, 5-(4-Hydroxy-phenyl)-1-(3-imidazol-1-yl-propyl)-4-2-thiophen-2-yl-ethylimino-imidazolidin-2-one]"
13,2.2 µM,"Cc1cccc(C2C(=NCCc3c[nH]c4ccccc34)NC(=O)N2CCCn2ccnc2)c1O (stereo not drawn) [Compound 46, 5-(2-Hydroxy-3-methyl-phenyl)-1-(3-imidazol-1-yl-propyl)-4-2-(1H-indol-3-yl)-ethylimino-imidazolidin-2-one]"
14,4 µM,"O=C1N/C(=N/CCc2c[nH]c3ccccc23)C(c2ccsc2)N1CCCn1ccnc1 (stereo not drawn) [Compound 47, 1-(3-Imidazol-1-yl-propyl)-4-2-(1H-indol-3-yl)-ethylimino-5-thiophen-3-yl-imidazolidin-2-one]"
15,7.6 µM,"CC1/C(=N\CCc2c[nH]c3ccccc23)NC(=O)N1CCCn1ccnc1 (stereo not drawn) [Compound 48, 1-(3-Imidazol-1-yl-propyl)-4-2-(1H-indol-3-yl)-ethylimino-5-methyl-imidazolidin-2-one]"
16,4.9 µM,"O=C1N/C(=N/CCc2c[nH]c3ccccc23)C(c2ccccc2)N1CCCn1ccnc1 (stereo not drawn) [Compound 49, 1-(3-Imidazol-1-yl-propyl)-4-2-(1H-indol-3-yl)-ethylimino-5-phenyl-imidazolidin-2-one]"

row,IC50,SMILES
1,6.7 µM,"O=C1N/C(=N/CCc2c[nH]c3ccccc23)C(c2ccc[nH]2)N1CCCn1ccnc1 (stereo not drawn) [Compound 50, 1-(3-Imidazol-1-yl-propyl)-4-2-(1H-indol-3-yl)-ethylimino-5-(1H-pyrrol-2-yl)-imidazolidin-2-one]"
2,5.8 µM,"O=C1N/C(=N/CCc2c[nH]c3ccccc23)C(C2CCC=CO2)N1CCCn1ccnc1 (stereo not drawn) [Compound 51, 5-(3,4-Dihydro-2H-pyran-2-yl)-1-(3-imidazol-1-yl-propyl)-4-2-(1H-indol-3-yl)-ethylimino-imidazolidin-2-one]"
3,2.2 µM,"O=C1N/C(=N\CCc2c[nH]c3ccccc23)C(c2cccc(F)c2F)N1CCCn1ccnc1 (stereo not drawn) [Compound 52, 5-(2,3-Difluoro-phenyl)-1-(3-imidazol-1-yl-propyl)-4-(2-(1H-indol-3-yl)-ethylimino)-imidazolidin-2-one]"
4,4 µM,"O=C1N/C(=N/CCc2c[nH]c3ccccc23)C(c2cc(F)cc(F)c2)N1CCCn1ccnc1 (stereo not drawn) [Compound 53, 5-(3,5-Difluoro-phenyl)-1-(3-imidazol-1-yl-propyl)-4-2-(1H-indol-3-yl)-ethylimino-imidazolidin-2-one]"
5,3.1 µM,"O=C1N/C(=N/CCc2c[nH]c3ccccc23)C(c2ccc(Cl)c(F)c2)N1CCCn1ccnc1 (stereo not drawn) [Compound 54, 5-(4-Chloro-3-fluoro-phenyl)-1-(3-imidazol-1-yl-propyl)-4-2-(1H-indol-3-yl)-ethylimino-imidazolidin-2-one]"
6,2.2 µM,"O=C1N/C(=N/CCc2c[nH]c3ccccc23)C(c2ccccc2Cl)N1CCCn1ccnc1 (stereo not drawn) [Compound 55, 5-(2-Chloro-phenyl)-1-(3-imidazol-1-yl-propyl)-4-2-(1H-indol-3-yl)-ethylimino-imidazolidin-2-one]"
7,8.5 µM,"O=C1N/C(=N/CCc2c[nH]c3ccccc23)C(CO)N1CCCn1ccnc1 (stereo not drawn) [Compound 56, 5-Hydroxymethyl-1-(3-imidazol-1-yl-propyl)-4-2-(1H-indol-3-yl)-ethylimino-imidazolidin-2-one]"
8,5.8 µM,"O=C1N/C(=N/CCc2c[nH]c3ccccc23)C(C2CC2)N1CCCn1ccnc1 (stereo not drawn) [Compound 57, 5-Cyclopropyl-1-(3-imidazol-1-yl-propyl)-4-2-(1H-indol-3-yl)-ethylimino-imidazolidin-2-one]"
9,6.7 µM,"O=C1N/C(=N/CCc2c[nH]c3ccccc23)C(c2ccco2)N1CCCn1ccnc1 (stereo not drawn) [Compound 58, 5-Furan-2-yl-1-(3-imidazol-1-yl-propyl)-4-2-(1H-indol-3-yl)-ethylimino-imidazolidin-2-one]"
10,4.9 µM,"CCCCC1/C(=N\CCc2c[nH]c3ccccc23)NC(=O)N1CCCn1ccnc1 (stereo not drawn) [Compound 59, 5-Butyl-1-(3-imidazol-1-yl-propyl)-4-2-(1H-indol-3-yl)-ethylimino-imidazolidin-2-one]"
11,5.8 µM,"CCC1/C(=N\CCc2c[nH]c3ccccc23)NC(=O)N1CCCn1ccnc1 (stereo not drawn) [Compound 60, 5-Ethyl-1-(3-imidazol-1-yl-propyl)-4-2-(1H-indol-3-yl)-ethylimino-imidazolidin-2-one]"
12,2.2 µM,"O=C1N/C(=N/CCc2c[nH]c3ccccc23)C(c2ccccc2F)N1CCCn1ccnc1 (stereo not drawn) [Compound 61, 5-(2-Fluoro-phenyl)-1-(3-imidazol-1-yl-propyl)-4-(2-(1H-indol-3-yl)-ethylimino)-imidazolidin-2-one]"
13,3.1 µM,"O=C1N/C(=N/CCc2c[nH]c3ccccc23)C(c2cccc(F)c2)N1CCCn1ccnc1 (stereo not drawn) [Compound 62, 5-(3-Fluoro-phenyl)-1-(3-imidazol-1-yl-propyl)-4-2-(1H-indol-3-yl)-ethylimino-imidazolidin-2-one]"
14,3.1 µM,"O=C1N/C(=N/CCc2c[nH]c3ccccc23)C(c2ccc(F)cc2)N1CCCn1ccnc1 (stereo not drawn) [Compound 63, 5-(4-Fluoro-phenyl)-1-(3-imidazol-1-yl-propyl)-4-2-(1H-indol-3-yl)-ethylimino-imidazolidin-2-one]"
15,1.3 µM,"O=C1N/C(=N/CCc2c[nH]c3ccccc23)C(c2ccc(O)cc2)N1CCCn1ccnc1 (stereo not drawn) [Compound 64, 5-(4-Hydroxy-phenyl)-1-(3-imidazol-1-yl-propyl)-4-2-(1H-indol-3-yl)-ethylimino-imidazolidin-2-one]"
16,5.8 µM,"O=C(C/N=C1/NC(=O)N(CCCn2ccnc2)C1c1ccsc1)N1CCc2ccccc2C1 (stereo not drawn) [Compound 65, 4-2-(3,4-Dihydro-1H-isoquinolin-2-yl)-2-oxo-ethylimino-1-(3-imidazol-1-yl-propyl)-5-thiophen-3-yl-imidazolidin-2-one]"
